Measurements as given in US8927601B2, “Uses of N-butylidenephthalide in treating a liver injury and improving liver function” (National Dong Hwa University, priority 2011, dated 2015).
Entries after “also recorded” stand apart in the source; their conditions may differ.

Key:
[1] = tested on: angina; conditions: conscious rats; cited from earlier work
[2] = tested on: TAA induced fibrotic livers; assay: Thioacetamide (TAA)-induced chronic liver fibrosis rat model: gross examination and histopathology (H&E, Masson's trichrome, Metavir score); assay type: in vivo, Wistar rats
Method: (§1) 5 ml/kg of thioacetamide (TAA) was injected intraperitoneally into Wistar rats every three days for eight weeks to induce the liver damage. The therapy was performed starting from the fifth week during the thioacetamide induction. 80 mg/Kg/day or 500 mg/Kg/day of n-BP were orally administrated in experimental rats for four weeks.
(§2) To establish the chronic liver fibrosis model in rat, adult male Wistar rats (320±20 g) were used and were intraperitoneally injected with 200 mg/kg TAA (Sigma-Aldrich) once every 3 days for 8 weeks as the liver fibrosis model (78 rats). In the Normal group (24 rats), normal saline was used in place of the TAA. At the end of 4, 6, 8, and 10 weeks (i.e., day 28, 42, 56, and 70 respectively), these rats were sacrificed and cardiac blood samples were collected. These samples were analyzed with a biochemical analyzer (Integra 800; Roche, Holliston, Mass., USA) to measure the liver function index, which included glutamate oxaloacetate transaminase (GOT), glutamate pyruvate transaminase (GPT), serum albumin, total bilirubin and prothrombin time.
Afterwards, the histopathology of liver tissue samples obtained from the sacrificed rats were also analyzed. Liver tissue samples were fixed in 3.7% formaldehyde and then embedded in paraffin. Serial 3-μm sections of the embedded tissues were stained with hematoxylin and eosin or Masson's trichrome. Liver fibrosis is the excessive accumulation of collagen in liver, and therefore the accumulation of collagen is an important index for evaluating liver fibrosis. Masson's trichrome stain is frequently used to identify increases in collagenous tissue in fibrotic liver. For Masson's trichrome stain, sectioned samples were placed in Bouin's solution (Sigma-Aldrich) at 56° C. for 1 h and then were stained sequentially with the following solutions: Mayer's hematoxylin solution (Sigma-Aldrich) for 5 min, Biebrich scarlet-acid fuchsin solution (Sigma-Aldrich) for 15 min, phosphomolybdic acid-phosphotungstic acid (Sigma-Aldrich) for 15 min, and aniline blue (Sigma-Aldrich) for 5 min.
(§3) 78 rats with TAA induced fibrotic livers were randomly divided into 4 groups. For group 1 (TAA group), there were 24 rats which received no therapy. The remaining […] were divided into three groups: Control group, n-BP treated group I (BP 80 mg/kg group) and n-BP treated group II (BP 500 mg/kg group). For these three groups, from the beginning of week 5 to the end of week 8, olive oil, n-BP (80 mg/Kg/day), and n-BP (500 mg/Kg/day) were orally administrated once per day to the rats, wherein the dosage was 1 ml of olive oil per kilogram body weight (Control group), 1 ml of 80 mg/ml n-BP olive oil solution per kilogram body weight (BP 80 mg/kg group), and 1 ml of 500 mg/ml n-BP olive oil solution per kilogram of body weight (BP 500 mg/kg group), respectively. n-BP was purchased from Alfa Aesar®, cat. A10353.
(§4) At the end of 6, 8, and 10 weeks, rats of each group were sacrificed and cardiac blood samples were collected. These samples were analyzed with a biochemical analyzer (Integra 800; Roche, Holliston, Mass., USA) to measure the liver function index, which included glutamate oxaloacetate transaminase (GOT), glutamate pyruvate transaminase (GPT), serum albumin, and prothrombin time. Afterwards, the histopathology of liver tissue samples obtained from the sacrificed rats was also analyzed. Liver tissue samples were fixed in 3.7% formaldehyde and then embedded in paraffin. Serial 3-μm sections of the embedded tissues were stained with hematoxylin and eosin or Masson's trichrome as described above.

[3] = tested on: TAA induced fibrotic livers; assay: Thioacetamide (TAA)-induced chronic liver fibrosis rat model: liver function index in blood (GOT, GPT, total bilirubin, albumin, prothrombin time); assay type: in vivo, Wistar rats
Method: as §1, §2, §3, §4

[4] = tested on: alcoholic-induced liver cirrhosis; conditions: patients with alcoholic-induced liver cirrhosis; cited from earlier work
[5] = both n-BP treated groups, end of week 10

SMILES	antianginal effect [1]	effect on blood pressure or heart rate [1]	gross examination of the liver ([2]; BP 80 mg/kg group (No. 73, 78) and BP 500 mg/kg group (No. 81, 87))	inflammatory activity scores (Metavir) ([2]; n-BP 80 or 500 mg/Kg/day oral)	fibrosis grade (Metavir), Masson's trichrome staining ([2]; n-BP 80 or 500 mg/Kg/day oral, weeks 5-8, on 42, 56 and 70 days, control group grade 3-4)	fibrosis score versus control group (olive oil) ([2]; n-BP 80 or 500 mg/Kg/day oral, 42, 56 and 70 days)	collagen accumulation in liver (Masson's trichrome staining) ([2]; n-BP 80 or 500 mg/Kg/day oral, 42, 56 and 70 days (weeks 6, 8, 10))	liver damage in hematoxylin and eosin stained sections ([2]; n-BP 80 or 500 mg/Kg/day oral, end of 8 weeks and 10 weeks)	inflammation and accumulation of collagen fibers (histopathological examinations) ([2]; therapy groups, n-BP 80 or 500 mg/Kg/day oral for four weeks)	serum total bilirubin level ([3]; both n-BP treated groups, end of week 6 (two weeks after treatments) continuing to end of week 10)	prothrombin time [3, 5]	serum GOT level [3, 5]	serum GPT level [3, 5]	serum total bilirubin level versus Control group [3, 5]	prothrombin time ([3]; both n-BP treated groups, from the end of week 6)	liver function index including GOT, GPT, albumin, total bilirubin and prothrombin time, versus control group ([3]; n-BP 80 or 500 mg/Kg/day oral for four weeks)	serum albumin level ([3]; n-BP treated groups, end of week 10)	albumin level ([3]; n-BP treated groups, ends of week 6 and week 8)	mortality [4]
CCCC=C1OC(=O)c2ccccc21 [n-BP, n-butylidenephthalide]	relieves angina	without affecting blood pressure or the heart rate	become even better like normal liver morphology	improvement in the recovery of the damaged liver occurs 2 weeks after n-BP treatment	1-2	lower	Collagen degradation was found; also recorded: almost no collagen accumulation	recovery from tissue degeneration and vacuolation was evident	significantly reduced	decline at the end of week 6	decreased to approach that of the Normal group	decline to near-normal values	decline to near-normal values	significantly lower	decreases	significant recovery of liver damage	4.35 ± 0.47 g/dL	rises	–
CC(=O)CCCCn1c(=O)c2c(ncn2C)n(C)c1=O [Pentoxifylline]	–	–	–	–	–	–	–	–	–	–	–	–	–	–	–	–	–	–	significantly reduce the mortality
